The values below come from ChEMBL document CHEMBL1275266, “Synthesis, cytotoxic activities and DNA binding properties of β-carboline derivatives” (Eur J Med Chem, 2010).

The source made the active and inactive calls. The calls are words filed in the database; no cut-off is given here.

For assay [1], the system named is 769-P. Briefly: Cytotoxicity against human 769-P cells by MTT assay. It is filed as functional, cell-based. A general note: Tetrazolium assays rely on reduction of a dye to a coloured formazan, in cell work by metabolically active cells.
Assay [2] concerns BGC-823. Briefly: Cytotoxicity against human BGC823 cells by MTT assay. It is filed as functional, cell-based.
Assay [3] concerns 786-0. Briefly: Cytotoxicity against human 786-0 cells by MTT assay. It counts as functional, cell-based.
The test system of assay [4] is A-375. In words: Cytotoxicity against human A375 cells by MTT assay. It counts as functional, cell-based.
Assay [5] concerns KB. Briefly: Cytotoxicity against human KB cells by MTT assay. It is filed as functional, cell-based.
Assay [6] deals with HepG2. In words: Cytotoxicity against human HepG2 cells by MTT assay. It counts as functional, cell-based.
Assay [7] deals with CWR22R. Briefly: Cytotoxicity against human 22Rv1 cells by MTT assay. It is filed as functional, cell-based.
In assay [8] the test system is OS-RC-2. In words: Cytotoxicity against human OS-RC2 cells by MTT assay. It is filed as functional, cell-based.
In assay [9] the test system is HT-29. In words: Cytotoxicity against human HT-29 cells by MTT assay. It counts as functional, cell-based.
Assay [10] concerns MCF7. In words: Cytotoxicity against human MCF7 cells by MTT assay. It is filed as functional, cell-based.
Assay [11] has as its system Calf thymus DNA. In words: Binding affinity to calf thymus DNA assessed as change in melting temperature at 20 uM by thermal denaturation assay. It is filed as nucleic-acid assay. The conditions noted are these: Bos taurus.
Assay [12] has as its system Calf thymus DNA. In words: Binding affinity to calf thymus DNA at 10 uM by fluorescence spectroscopy. The conditions noted are these: Bos taurus. It is filed as nucleic-acid assay.
In assay [13] the test system is Calf thymus DNA. Briefly: Binding affinity to calf thymus DNA at 20 uM by UV spectroscopy. It counts as nucleic-acid assay. The settings on record: Bos taurus.

As usually defined, the IC50 is the concentration at which inhibition is half-maximal. Read a low IC50 as greater potency. As to `COc1cc(-c2nc(CNCCCN(C)C)cc3c2[nH]c2ccccc23)cc(OC)c1OC`, the IC50 in [1] was above 50 µM; in assay [2] it was above 50 µM; in assay [3], above 50 µM; in assay [4], above 50 µM; in [5] it was above 50 µM; in assay [6], 42.7 µM. The IC50 in assay [7], in assay [8], in [9] and in assay [10] was above 50 µM each time.

As usually defined, the ΔTm is the change in melting temperature against a reference sample. With `CCN(CC)CCCNCc1cc2c3ccccc3n(CCCc3ccccc3)c2c(-c2cc(OC)c(OC)c(OC)c2)n1`, in assay [11], the ΔTm amounted to 14.6 °C. In addition, the outcome in assay [12] and in assay [13] was Active. In addition, the IC50 worked out at 2.7 µM in assay [1]; 5.9 µM in [2]; 4.7 µM in [3]; 2.6 µM in assay [4]; 6.5 µM in assay [5]; 1.7 µM in assay [6]. The IC50 in assay [7] came out at 7 µM; in assay [8] it was 8.3 µM; in [9], 5.9 µM; in assay [10], 4.9 µM.

On to `CCCCn1c2ccccc2c2cc(CNCCCN(C)C)nc(-c3cc(OC)c(OC)c(OC)c3)c21`, for which the IC50 in [1] came to 7.3 µM; in assay [2] it was 6.8 µM; in [3], 6 µM; in [4] it was 11 µM; in assay [5], 33.5 µM; in assay [6], 8.2 µM. The IC50 was determined as 10.8 µM in assay [7], 25.6 µM in assay [8], 11.3 µM in assay [9] and 9.3 µM in assay [10].

Consider `CCCCn1c2ccccc2c2cc(CNCCN(CC)CC)nc(-c3cc(OC)c(OC)c(OC)c3)c21`, for which the IC50 came out at 14.5 µM in assay [1]; 13.9 µM in [2]; 13.9 µM in [3]; 14.5 µM in assay [4]; 44.9 µM in [5]; 18.6 µM in assay [6]. The IC50 was 8.9 µM in assay [7], 45.4 µM in assay [8], above 50 µM in assay [9] and above 50 µM in assay [10].

Consider `CCCCn1c2ccccc2c2cc(CNCCCN(CC)CC)nc(-c3cc(OC)c(OC)c(OC)c3)c21`, for which, in assay [11], the ΔTm stood at 14.8 °C. Moreover, the outcome in assay [12] and in assay [13] was Active. The IC50 worked out at 7.5 µM in assay [1]; 6.1 µM in [2]; 7.7 µM in assay [3]; 11.3 µM in assay [4]; 37.3 µM in assay [5]; 8.5 µM in assay [6]. Besides, the IC50 in assay [7] was 4.2 µM; in assay [8], 25.7 µM; in assay [9], 14 µM; in [10] it was 6.8 µM.

Regarding `CCN(CC)CCCCNCc1cc2c3ccccc3n(CCCc3ccccc3)c2c(-c2cc(OC)c(OC)c(OC)c2)n1`, the IC50 in [1] was 3.9 µM; in assay [2] it was 6.1 µM; in assay [3] it was 5.5 µM; in assay [4], 3.7 µM; in [5], 6.9 µM; in [6], 2.1 µM. The IC50 turned out to be 6.3 µM in [7], 8.7 µM in assay [8], 7.5 µM in assay [9] and 5.2 µM in assay [10].

As for `CCCCn1c2ccccc2c2cc(CNCCCCN(CC)CC)nc(-c3cc(OC)c(OC)c(OC)c3)c21`, the IC50 in assay [1] turned out to be 11.6 µM; in assay [2], 19.2 µM; in assay [3] it was 11 µM; in assay [4], 11 µM; in assay [5], 7.6 µM; in [6], 2.5 µM. Besides, the IC50 came to 8.5 µM in [7], 28.7 µM in [8], 19.8 µM in [9] and 5.3 µM in assay [10].

For `COc1cc(-c2nc(CNCCCN(C)C)cc3c4ccccc4n(C)c23)cc(OC)c1OC`, the IC50 was above 50 µM in assay [1]; above 50 µM in [2]; 30.2 µM in [3]; above 50 µM in assay [4]; above 50 µM in [5]; 15.4 µM in assay [6]. The IC50 in [7] is above 50 µM; in assay [8], above 50 µM; in assay [9], above 50 µM; in assay [10] it was 17.1 µM.

Turning to `COc1cc(-c2nc(CNCCCN(C)C)cc3c4ccccc4n(CCCc4ccccc4)c23)cc(OC)c1OC`, the IC50 in assay [1] was 10.4 µM; in assay [2], 8.5 µM; in assay [3], 6 µM; in [4], 3.7 µM; in [5], 4.4 µM; in assay [6], 3.9 µM. Besides, the IC50 in [7] worked out at 10 µM; in [8], 9.4 µM; in assay [9], 7.9 µM; in [10], 6.7 µM.

Turning to `CCN(CC)CCCNCc1cc2c([nH]c3ccccc32)c(-c2cc(OC)c(OC)c(OC)c2)n1`, the ΔTm in assay [11] worked out at 24.8 °C. Further, the IC50 in [1] was above 50 µM; in assay [2], above 50 µM; in assay [3] it was above 50 µM; in assay [4], above 50 µM; in [5], above 50 µM; in [6] it was 39.6 µM. Further, the IC50 in assay [7] was above 50 µM; in [8], 46.8 µM; in assay [9], above 50 µM; in [10], above 50 µM.

Consider `CCN(CC)CCNCc1cc2c3ccccc3n(C)c2c(-c2cc(OC)c(OC)c(OC)c2)n1`, for which the IC50 in assay [1] is above 50 µM; in assay [2] it was above 50 µM; in [3] it was 33.7 µM; in [4], above 50 µM; in assay [5], above 50 µM; in assay [6], 14.8 µM. Also, the IC50 in assay [7], in assay [8], in assay [9] and in assay [10] was above 50 µM each time.

With `CC(=O)O[C@H]1C(=O)[C@@]2(C)[C@H]([C@H](OC(=O)c3ccccc3)[C@]3(O)C[C@H](OC(=O)[C@H](O)[C@@H](NC(=O)c4ccccc4)c4ccccc4)C(C)=C1C3(C)C)[C@]1(OC(C)=O)CO[C@@H]1C[C@@H]2O` [PACLITAXEL], the IC50 in assay [2] was 1.5 µM; in [3] it was below 0.08 µM; in assay [5], 0.08 µM; in assay [6] it was below 0.08 µM; in assay [8], below 0.08 µM.

For `CCN(CC)CCNCc1cc2c3ccccc3n(CCCc3ccccc3)c2c(-c2cc(OC)c(OC)c(OC)c2)n1`, the IC50 in assay [1] amounted to 3 µM; in assay [2], 2.7 µM; in [3], 3.4 µM; in assay [4] it was 12 µM; in assay [5], 2.5 µM; in assay [6], 3.8 µM. In addition, the IC50 in [7] is 18.9 µM; in [8], 3 µM; in [9] it was 10.9 µM; in [10] it was 8.1 µM.

Turning to `CCN(CC)CCCNCc1cc2c3ccccc3n(C)c2c(-c2cc(OC)c(OC)c(OC)c2)n1`, in assay [11], the ΔTm was determined as 17.3 °C. In addition, the result in assay [12] and in assay [13] was Active. The IC50 in [1] came to 34.6 µM; in assay [2] it was 48.5 µM; in [3], 12.1 µM; in assay [4], 48.4 µM; in assay [5], 29 µM; in assay [6] it was 8.2 µM. Also, the IC50 was above 50 µM in [7], above 50 µM in assay [8], 43.1 µM in assay [9] and 28.3 µM in assay [10].

For the molecule `CCN(CC)CCCCNCc1cc2c3ccccc3n(C)c2c(-c2cc(OC)c(OC)c(OC)c2)n1`, the IC50 in [1] is 19.1 µM; in assay [2], 46.3 µM; in assay [3], 20.7 µM; in assay [4] it was above 50 µM; in assay [5] it was 42.8 µM; in [6], 7.1 µM. The IC50 in [7] is above 50 µM; in [8], above 50 µM; in [9], above 50 µM; in assay [10], 36.5 µM.

Regarding `COc1cccc2c1C(=O)c1c(O)c3c(c(O)c1C2=O)C[C@@](O)(C(=O)CO)C[C@@H]3O[C@H]1C[C@H](N)[C@H](O)[C@H](C)O1`, the ΔTm in assay [11] stood at 32 °C.
